According to paper PMC10423028 (FEMS Microbiology Letters, 2023):

Biological target: VFT^pp (periplasmic VFT domain of RmcA^pp) (Pseudomonas putida, UniProt Q88QU8)
Assay: biochemical

VFT^pp (periplasmic VFT domain of RmcA^pp), sequence (Q88QU8 21-265): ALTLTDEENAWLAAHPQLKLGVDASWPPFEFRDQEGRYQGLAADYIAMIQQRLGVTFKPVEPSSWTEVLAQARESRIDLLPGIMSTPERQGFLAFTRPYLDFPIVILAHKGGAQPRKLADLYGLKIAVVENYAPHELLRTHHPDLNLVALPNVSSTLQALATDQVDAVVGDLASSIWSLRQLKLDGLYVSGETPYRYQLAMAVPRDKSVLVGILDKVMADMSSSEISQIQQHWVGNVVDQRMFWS

- Kd: 7.1 ± 2.2 µM
SMILES: N=C(N)NCCC[C@H](N)C(=O)O [L-arginine]
